From patent US10854312B2, “Selective peptide antagonists” (BIONIZ, LLC, priority 2013, dated 2020)
Entries after “also recorded” stand apart in the source; their conditions may differ. No end group written: not given here.

Legend:
Type in all cases: cell-based
[1] = tested on: IL-2/IL-15-induced proliferation of ex vivo human T-lymphocytes
Protocol: FIG. 7A, and FIG. 7B present effective inhibition of a combined function of target γc-cytokines by BNZ132-1. […] Human Peripheral T cells were prepared as described in the methodology section. Four hundred thousand cells (in 200 μl culture) were incubated with the cytokines and BNZ132-1 at the indicated concentrations for 24 h, and cellular proliferation was determined by the […] using the WST-1 reagent (Clontech). The Y-axis represents the OD450 values. The p values; 1 nM cytokine combination—No inhibition vs. anti-IL-2; 0.33, No inhibition vs. anti-IL-15; 0.13, No inhibition vs. anti IL-2+IL-15; 0.003. No inhibition vs. BNZ132-1; 0.021. 0.1 nM cytokine combination—No inhibition vs. anti-IL-2; 0.046, No inhibition vs. anti-IL-15; 0.057, No inhibition vs. anti IL-2+IL-15; 0.001, No inhibition vs. anti IL-2+15; 0.001, No inhibition vs.BNZ132-1; 0.001. The assay was performed in triplicate. […] Peripheral blood mononuclear cells were purified from the blood of a HAM-TSP patient and set up for a spontaneous proliferation assay as previously described36. The cellular proliferation was measured by the thymidine incorporation assay. The Y-axis represents the cpm values. Doses are on the X-axis; BNZ132-1, 3 and 0.3 μM. […] After 12 h incubation, OD450 was measured. […] Absorbance at 450 nm was read at 6 h after the addition of the WST-1 dye. […]

human IL-9 = assay: NK92 cell proliferation assay (WST-1), IL-9; settings: 24 h
Protocol: (§1) Human peripheral blood mononuclear cells were purified by the Ficoll-paque gradient centrifugation (GE-Healthcare) and stimulated by PHA (5 μg ml^−1, Sigma) for 48 h, then expanded with IL-2 (0.5 nM, Peprotech) for 48h, and then depleted of non-T cells by the Pan-T cell negative enrichment Ab cocktails (Miltenyi). The purified T cells were then fasted of IL-2 overnight prior to the proliferation assay by the tetrazolium dye method. Four hundred thousand cells (in 200 μl culture) were incubated with the cytokines and BNZ132-1 at the indicated concentrations for 24 h, and 20 μl WST1 reagent (Clontech) was added to each well. After 12 h incubation, OD450 was measured. The assay was performed in triplicate. […] NK 92 cells were cultured in human IL-2. Cells were washed to withdraw IL-2 for overnight and two hundred thousand cells (in 200 μl volume) were incubated with the indicated concentrations of the cytokine and BNZ132-1 for 24 h before 20 μl WST-1 reagent (Clontech) was added to each well to measure proliferative response. Absorbance at 450 nm was read at 6 h after the addition of the WST-1 dye. The assay was performed in triplicate. The assay was performed in triplicate and the figure represents a typical result out of 5 different HAM-TSP patients.

human IL-2 = assay: NK92 cell proliferation assay (WST-1), IL-2; settings: 24 h
Protocol: as §1
FIG. 8B, and FIG. 8C show the results of NK92 cell proliferation assay. NK92 cells responded to IL-2 and IL-15. […]

human Flt-3 ligand = human Flt-3 ligand (Homo sapiens, UniProt P49771); assay: PT-18β proliferation assay (3H-thymidine), non-γc cytokine Flt-3 ligand; settings: 1 nM human Flt-3 ligand, 15 μM BNZ132-1
Chain of human Flt-3 ligand (P49771 27-235): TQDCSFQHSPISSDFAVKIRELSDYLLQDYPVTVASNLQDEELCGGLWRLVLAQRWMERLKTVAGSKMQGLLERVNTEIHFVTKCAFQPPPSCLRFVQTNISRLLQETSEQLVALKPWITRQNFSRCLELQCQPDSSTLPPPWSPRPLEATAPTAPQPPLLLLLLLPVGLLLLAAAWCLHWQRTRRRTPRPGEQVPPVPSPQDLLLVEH

mouse stem cell factor = mouse stem cell factor (Mus musculus, UniProt P20826); assay: PT-18β proliferation assay (3H-thymidine), non-γc cytokine SCF; settings: 1 nM mouse stem cell factor, 15 μM BNZ132-1
Chain of mouse stem cell factor (P20826 26-273): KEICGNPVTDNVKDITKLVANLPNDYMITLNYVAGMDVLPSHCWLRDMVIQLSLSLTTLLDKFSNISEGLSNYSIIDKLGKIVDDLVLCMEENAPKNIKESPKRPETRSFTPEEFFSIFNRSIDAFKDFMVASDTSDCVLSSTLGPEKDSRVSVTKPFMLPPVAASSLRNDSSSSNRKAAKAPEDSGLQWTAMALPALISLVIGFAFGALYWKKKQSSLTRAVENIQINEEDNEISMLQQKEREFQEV

γc-cytokines = assay: Target cytokine spectrum within the γc-family
mouse IL-9 signal = assay: Western blot of phosphorylation downstream of IL-9 in PT-18 cells; settings: 1 nM mouse IL-9, excess dose of BNZ132-1, 15 min
Protocol: PT-18 cells32 were fasted of IL-3 for 12 h prior to stimulation. Cells were stimulated with 1 nM mouse IL-4 or mouse IL-9 in the presence or absence of excess dose of BNZ132-1 ([…]) for 15 min and then cellular proteins were extracted. Phosphorylation of the indicated proteins was detected using phosphor-specific antibodies (Cell signaling), followed by ECL. IL-4 is the only γc-cytokine that induces the phosphorylation of STAT6. Note that only IL-4, but not IL-9, induced the tyrosine-phosphorylation of STAT6. […] Lanes: 1. no stimulation, 2. IL-4, 3. IL-4+BNZ132-1, 4. IL-9, 5. IL-9+BNZ132-1

IKEFLQRFIHIVQSIINTS [BNZ132-1]
IC50 [1]: 0.15 µM
inhibition of IL-9-induced proliferation of NK92 cells (human IL-9): dose-dependent inhibition
inhibition of IL-2-induced proliferation of NK92 cells (human IL-2): dose-dependent manner; also recorded: dose-dependent inhibition
inhibition of Flt3-L-induced proliferation of PT-18β cells (human Flt-3 ligand): did not inhibit; also recorded: no inhibition; also recorded: no inhibition of non-γc cytokines
inhibition of SCF-induced proliferation of PT-18β cells (mouse stem cell factor): did not inhibit; also recorded: no inhibition; also recorded: no inhibition of non-γc cytokines
γc-cytokines not inhibited (γc-cytokines; IL-4, IL-7 and IL-21): excludes IL-4,-7 or -21
γc-cytokines inhibited (γc-cytokines; summary statements, BNZ132-2 and -3 data not shown): specifically inhibits IL-2, IL-15 and IL-9; also recorded: restricted to IL-2, -15, and -9
inhibition of IL-9 signal (phosphorylation, STAT5) (mouse IL-9 signal): comprehensively inhibited
